Data reported in PMC11587516 (ACS Chemical Neuroscience, 2024).
Numbering of substitutions follows the chain as printed.

What was measured:
Format in all cases: cell-based
[1] = system: normal human astrocytes (NHA); assay: WST-1 viability and proliferation assay on normal human astrocytes; conditions: 1–100 μM in culture medium; 24 and 48 h
Experimental: Taking into account the presence of BGT1 and GAT3 transporters in astrocytes, we studied the effect of compound 9 on astrocyte viability, proliferation, and homeostasis. Normal human astrocytes (NHA) were treated with 1–100 μM compound 9 in a culture medium. The WST-1 assay was used to determine the number of metabolically active cells after 24 and 48 h of incubation. […] In the next step, a higher concentration (500 μM) of the compound and a longer incubation time (72 h) were applied, and the cells were examined by phase-contrast microscopy. […] Considering the results shown in Figure 6, compound 9 was not cytotoxic toward human astrocytes under in vitro culture conditions.
Gibco Human Astrocytes (Thermo Fisher Scientific) were maintained in a humidified 5% CO2 incubator at 37 °C. The cells were cultured in Gibco Astrocyte Medium (DMEM with GlutaMAX, N-2 Supplement, and OneShot Fetal Bovine Serum) supplemented with penicillin G (100 U/mL), neomycin (10 μg/mL), and amphotericin B (0.25 μg/mL).
The effect of compound 9 on cell viability and cell proliferation was evaluated using a WST-1 assay (Roche GmbH, Mannheim, Germany) based on the cleavage of the WST-1 reagent into formazan by mitochondrial dehydrogenases in metabolically active (viable) cells. […] The absorbance was measured at 440 and 650 nm using a microplate reader Infinite 200 PRO (TECAN).

[2] = molecular target: T1, hBGT1 E52A (Homo sapiens, UniProt P48065, E52A); assay: [3H]GABA uptake assay, hBGT1 mutant E52A in tsA201 cells
T1 construct: host or cells: tsA201 cells (transformed HEK293), transient expression
T1 sequence (P48065 1-614 E52A): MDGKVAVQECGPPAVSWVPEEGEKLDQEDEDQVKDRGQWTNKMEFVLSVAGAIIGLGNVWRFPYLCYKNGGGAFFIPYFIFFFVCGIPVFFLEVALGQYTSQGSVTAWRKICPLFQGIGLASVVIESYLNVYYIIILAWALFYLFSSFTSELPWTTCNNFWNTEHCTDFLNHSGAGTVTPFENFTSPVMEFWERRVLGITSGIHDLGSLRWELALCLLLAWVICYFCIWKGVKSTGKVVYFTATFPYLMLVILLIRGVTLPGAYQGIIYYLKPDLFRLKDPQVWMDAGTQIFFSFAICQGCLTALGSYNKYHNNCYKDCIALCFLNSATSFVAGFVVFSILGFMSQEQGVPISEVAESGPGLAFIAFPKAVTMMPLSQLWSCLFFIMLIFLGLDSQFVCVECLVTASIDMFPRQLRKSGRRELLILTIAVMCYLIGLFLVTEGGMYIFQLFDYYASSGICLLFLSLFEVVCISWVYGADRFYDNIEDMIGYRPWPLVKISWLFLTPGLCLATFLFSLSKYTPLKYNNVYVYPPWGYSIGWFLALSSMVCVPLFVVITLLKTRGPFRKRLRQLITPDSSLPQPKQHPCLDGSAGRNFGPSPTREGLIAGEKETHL
Experimental: (§1) To validate the molecular modeling, particularly the crucial interactions with the Glu52 and Gln299 residues, the activity of compound 9 was tested on the following hBGT1 mutants: E52A, E52Y, Q299L, and the double mutant E52A+Q299L (Figure 5 and Table 1).[14]
(§2) The CHO cells were placed in 96-well plates (approximately 50,000 cells/well) for about 24 h before the experiment. […] After incubation, cells were washed 3 times with 100 μL/well ice-cold assay buffer, 150 μL/well MicroScint20 (PerkinElmer) was subsequently added before the plate was shaken for at least 1 h. The radioactivity of each well of the plate was measured on a TopCount NXT scintillation counter. […] Data presented are the pooled data of at least three independent experiments with three technical replicates if not stated otherwise in figure legends. Concentration–response curves were fitted by nonlinear regression to the sigmoidal concentration–response model with GraphPad Prism v 9.0.
(§3) The tsA201 cell line (a transformed HEK293 cell line) has been described previously and was cultured accordingly.[20] The tsA201 cells used for transient expression of hBGT1 mutants were transfected with DNA constructs (8 μg per 10 cm plate) using 40 μL of PolyFect transfection reagent according to the manufacturer’s protocol (Qiagen). […]

[3] = molecular target: T2, hBGT1 E52A+Q299L (Homo sapiens, UniProt P48065, E52A/Q299L); assay: [3H]GABA uptake assay, hBGT1 double mutant E52A+Q299L in tsA201 cells
T2 construct: host or cells: tsA201 cells (transformed HEK293), transient expression
T2 sequence (P48065 1-614 E52A/Q299L): T1 sequence (P48065 1-614 E52A) with Q299L
Experimental: as §1, §2, §3

## NC12CC(C(=O)O)(C1)C2 [Compound 9]
[1]
  effect on astrocyte survival and proliferation (WST-1): no effect on astrocyte survival and proliferation
[2]
  IC50: 64.2 µM
[2]; E52A vs wt
  decrease in activity compared with wild type hBGT1: ~2 fold
[3]
  IC50: > 1000 µM
[3]; E52A+Q299L vs wt
  activity at mutant compared with wild type hBGT1: no activity
